Test results as given in ChEMBL document CHEMBL1201862, “PubChem BioAssay data set” (2004).
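Where inhibition never reached the appropriate level, the endpoint shown equals the highest concentration tested. Otherwise, values were interpolated linearly from a five-concentration, 48-hour dose response in 96-well plates. GI50: concentration for 50% inhibition of growth.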 Activity calls are given as the source filed them. No stated cut-off is given here; in the data, active = GI50 up to about 1.1 µM and inactive = higher.

Tests used:
Experiment in all cases: growth of human tumour cells (NCI), 48 h
[1] = system: SNB-19
[2] = system: HT-29
[3] = system: Malme-3M
[4] = system: BT-549
[5] = system: UACC-62
[6] = system: NCI-H23
[7] = system: OVCAR-5
[8] = system: SR
[9] = system: SK-MEL-5
[10] = system: OVCAR-8
[11] = system: UACC-257
[12] = system: LOX IMVI
[13] = system: A498
[14] = system: SF-295
[15] = system: ACHN
[16] = system: Hs-578T
[17] = system: MCF7
[18] = system: RPMI-8226
[19] = system: EKVX
[20] = system: NCI-H522

Measured: GI50

CCOC(=O)c1cc(C(O)P2(=O)N(CC(C)(C)C)[C@@H]3CCCC[C@H]3N2CC(C)(C)C)cn1C(=O)OC(C)(C)C (stereo not given in full)
inactive: [1] 19.5 µM | [2] 13.8 µM | [3] 13.7 µM | [4] 17 µM | [5] 13.7 µM | [6] 24.3 µM | [7] 17.3 µM | [8] 10.2 µM | [9] 17.5 µM | [10] 24.8 µM | [11] 14.4 µM | [12] 17.6 µM | [13] 23.9 µM | [14] 15 µM | [15] 28.1 µM | [16] 16.9 µM | [17] 18.7 µM | [18] 12.7 µM | [19] 20.5 µM | [20] 13.8 µM

O=C(O)CC[P+](c1ccccc1)(c1ccccc1)c1ccccc1
inactive: [1] 24.2 µM | [2] 15.4 µM | [3] 16.3 µM | [4] 21.1 µM | [5] 22.3 µM | [6] 23.3 µM | [7] 38.1 µM | [8] 50.4 µM | [9] 14.6 µM | [10] 43.5 µM | [11] 23.2 µM | [12] 30.7 µM | [13] 42.9 µM | [14] 79.6 µM | [15] > 100 µM | [16] 48.3 µM | [17] 39 µM | [18] 3.21 µM | [19] 36.8 µM | [20] 24.5 µM

Cc1nc(O)nc(N/N=C/c2ccc(Cl)c(Cl)c2)c1C(=O)Nc1ccc(Cl)c(Cl)c1
inactive: [1] 9.59 µM | [2] 14.9 µM | [3] 11.6 µM | [4] 19.5 µM | [5] 17.6 µM | [6] 13.1 µM | [7] 26.5 µM | [8] 36.3 µM | [9] 9.59 µM | [10] 4.27 µM | [11] > 24.6 µM | [12] 15.1 µM | [13] 3.12 µM | [14] 10.6 µM | [15] > 38.6 µM | [16] 10.5 µM | [17] 18.5 µM | [18] 41.3 µM | [19] 30 µM | [20] 17.1 µM

Clc1cc2ccccc2c2ccccc12
inactive: [1] 43 µM | [2] 32.4 µM | [3] 37 µM | [4] 49.2 µM | [5] 62.4 µM | [6] 81.5 µM | [7] > 100 µM | [8] 30.8 µM | [9] 63.2 µM | [10] > 100 µM | [11] 55.2 µM | [12] 53.7 µM | [13] > 100 µM | [14] 45.3 µM | [15] 82.2 µM | [16] 65.6 µM | [17] 31.7 µM | [18] 31.9 µM | [19] 41.5 µM | [20] 33.8 µM

C=C1OC2OC(C)C(NC(=O)OCC(Cl)(Cl)Cl)C(OC(C)=O)C2O1 (stereo not given)
inactive: [1] > 100 µM | [2] > 100 µM | [3] > 100 µM | [4] > 100 µM | [5] > 100 µM | [6] > 100 µM | [7] > 100 µM | [8] > 100 µM | [9] > 100 µM | [10] > 100 µM | [11] > 100 µM | [12] > 100 µM | [13] > 100 µM | [14] > 100 µM | [15] > 100 µM | [16] > 100 µM | [17] > 100 µM | [18] > 100 µM | [19] > 100 µM | [20] > 100 µM
